We go through 2 molecules from US11918561B2, “Treatment of breast cancer using combination therapies comprising GDC-9545 and a CDK4/6 inhibitor” (Genentech, Inc., priority 2020, dated 2024).

One series has as its system PR. Put plainly: Pharmacodynamics: PR protein level in paired pre- and on-treatment biopsies. In kind it is in vivo, human. The following applies: 7/8, cohort not stated.
The target in another series is T1, ER (Homo sapiens, UniProt P03372).
T1 construct: from tissue; host or cells: patients' tumour biopsies (pre- and on-treatment)
T1 sequence (P03372 1-595): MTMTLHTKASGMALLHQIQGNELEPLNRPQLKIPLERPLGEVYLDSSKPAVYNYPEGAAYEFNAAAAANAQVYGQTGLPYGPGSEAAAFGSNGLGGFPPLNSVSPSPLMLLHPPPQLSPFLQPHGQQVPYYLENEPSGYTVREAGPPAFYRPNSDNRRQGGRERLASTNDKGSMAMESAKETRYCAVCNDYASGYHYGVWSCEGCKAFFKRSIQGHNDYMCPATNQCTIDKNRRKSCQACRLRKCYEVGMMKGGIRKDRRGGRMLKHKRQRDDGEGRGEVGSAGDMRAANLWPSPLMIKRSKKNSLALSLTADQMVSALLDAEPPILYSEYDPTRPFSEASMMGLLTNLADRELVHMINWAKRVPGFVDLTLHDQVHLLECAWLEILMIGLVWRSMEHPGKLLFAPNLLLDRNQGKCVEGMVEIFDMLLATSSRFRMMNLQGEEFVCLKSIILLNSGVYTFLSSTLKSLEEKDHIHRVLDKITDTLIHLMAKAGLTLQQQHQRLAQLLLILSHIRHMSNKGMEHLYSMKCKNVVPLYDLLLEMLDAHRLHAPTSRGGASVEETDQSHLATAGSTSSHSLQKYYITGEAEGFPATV
Put plainly: Pharmacodynamics: ER protein level in paired pre- and on-treatment biopsies. The format is in vivo. The following applies: 10/12; pre- and on-treatment biopsies (n=12); cohort not stated.

The subject of series [1] is patients with ER+ (HER2−) metastatic breast cancer. The following applies: human, in vivo. An excerpt: A graded adverse event refers to the severity grading scale as established for by NCI CTCAE. In one embodiment, the adverse event is graded in accordance with the table below.
No prior treatment with CDK4/6i was allowed in patients receiving palbociclib.

For series [2] the test system is unchanged. Put plainly: Reason for discontinuation of study treatment. In kind it is in vivo. The following applies: Cohort A n = 40, Cohort B n = 48.
For series [3], the system named is ER+ (HER2−) metastatic breast cancer. Put plainly: Clinical activity (clinical benefit, response, PFS; RECIST v1.1). The format is in vivo, human. An excerpt:
“Objective response rate” or “ORR” refers the percentage of patients with a confirmed complete response or partial response on two consecutive occasions ≥4 weeks apart, as determined by the investigator according to RECIST v1.1
“Progression free survival” or “PFS” refers to the time from enrollment to the date of the first recorded occurrence of disease progression, as determined by the investigator using RECIST v1.1 or death from any cause, whichever occurs first.
“Clinical benefit rate” or “CBR” refers to the percentage of patients with stable disease for at least 24 weeks or with confirmed complete or partial response, as determined by the investigator according to RECIST v1.1.
Clinical Activity. In Cohort A 22/40 patients (55%) derived clinical benefit defined as patients with CR, PR or first occurrence of progressive disease observed on or after 24 weeks.

The subject of series [4] is ESR1 mutant allele (ctDNA). Put plainly: ctDNA ESR1 mutant allele frequency, change from baseline. In kind it is in vivo, human. The note with it: all patients in both cohorts (n=26).
The test system of the next series is ER pathway signature. Put plainly: Pharmacodynamics: ER pathway signature score in paired biopsies. The format is in vivo, human. The note with it: 8/12; pre- and on-treatment biopsies (n=12); cohort not stated. An excerpt:
An “ER pathway activity score” as used herein, refers to a numerical value that reflects mathematical difference between the E2-induced score and the E2-repressed score.
Breast cancer is a heterogeneous disease with many distinct subtypes as defined by molecular signatures and a diverse array of mutational profiles. Patients described herein can be tested for ER+ HER2− laBC or mBC using diagnostic methods, or kits to inform treating or predict of responsiveness of a pateint to the combination therapies described herein. In one embodiment, a patient can be tested by determining an ER pathway activity score such as those described in US Patent Application Publication 20200082944. In some embodiments, a patient sample is taken and tested to determine an ER pathway activity score. The score can be calculated using a 41-gene signature by subtracting an E2-repressed score (as determined from the average z-scored expression of genes comprising BAMBI, BCAS1, CCNG2, DDIT4, EGLN3, FAM171B, GRM4, IL1R1, LIPH, NBEA, PNPLA7, PSCA, SEMA3E, SSPO, STON1, TGFB3, TP531NP1, and TP531NP2) from an E2-induced score (as determined from the average z-scored expression of genes set forth in AGR3, AMZ1, AREG, C5AR2, CELSR2, CT62, FKBP4, FMN1, GREB1, IGFBP4, NOSIAP, NXPH3, OLFM1, PGR, PPMIJ, […], RBM24, RERG, RET, SGK3, SLC9A3R1, TFF1, and ZNF703).

The nature of series [5]: Pharmacokinetics of GDC-9545 and palbociclib in patients. The format is in vivo, human. An excerpt:
Pharmacokinetics. […] Palbociclib PK was not altered when given with GDC-9545 and was consistent with reported values.

The mark [6] stands for this setting: Cohort A n = 40, Cohort B n = 48.
Setting [7] is: of 31 (Cohort A) and 45 (Cohort B) patients with measurable disease.

With `C[C@@H]1Cc2c([nH]c3ccccc23)[C@@H](c2c(F)cc(NC3CN(CCCF)C3)cc2F)N1CC(F)(F)CO` [GDC-9545, 3-((1R,3R)-1-(2,6-difluoro-4-((1-(3-fluoropropyl)azetidin-3-yl)amino)phenyl)-3-methyl-1,3,4,9-tetrahydro-2H-pyrido[3,4-b]indol-2-yl)-2,2-difluoropropan-1-ol], the “Reduced PR protein levels, share of evaluable paired biopsies” value with PR stood at 88%. Further, the “Reduced ER protein levels, share of evaluable paired biopsies” value on ER is given as 83%. In series [1], the “Bradycardia AEs reported, patients” value is given as 8%; the “Grade 3 AEs related to GDC-9545 (others Grade 1-2)” value was “three Grade 3 events of fatigue, transaminase increased, and diarrhea”; the “Heart rate (HR) changes upon completion of treatment” value is listed as “returned to baseline”; the “Patients who discontinued study treatment due to AEs” value was “No patients”. Moreover, in series [1], the “Patients with an AE related to GDC-9545” value stood at 58%; the “Severity of bradycardia AEs” value was “all were Grade 1 and asymptomatic”; the “Treatment-emergent AEs (TEAE) reported, patients” value is 78%. For the same molecule, in series [2], the “Reason for discontinuation: Death” value is 1 (3%) patients (%) and the “Reason for discontinuation: Disease progression” value was 22 (55%) patients (%). Moreover, the “Clinical benefit in patients with prior fulvestrant treatment” value in series [3] (Cohort A 2/7, Cohort B 2/3) came out at 29%. Moreover, in series [3] (Cohort A 8/13, Cohort B 11/11), the “Clinical benefit in patients with detectable ESR1 mutations at enrollment” value is on record as 62%. The “Patients who derived clinical benefit (CR, PR or first progressive disease on or after 24 weeks)” value in series [3] (Cohort A 22/40, Cohort B 35/48) is 55%. In series [3] (setting [6]), the “Median PFS” value amounted to 7.8 months and the “Patients with an event of disease progression or death for PFS calculations” value was 55%. In series [3] (Table 3), this molecule showed a CBR of 55% and an ORR of 13%. This molecule also displayed a Clinical benefit in series [3] (number of patients as printed) of 40. For the same molecule, in series [3] (setting [7]), the “Patients with confirmed response” value turned out to be 4 and the “Patients with unconfirmed response” value was 4. Also, in series [3] (patients with measurable disease at baseline, Cohort A 4/31, Cohort B 14/45), the Partial response was 13%. Further, in series [4], the “ctDNA ESR1 mutant allele frequency” value was “Decreases from baseline”. Also, the “Reduced ER pathway signature scores, share of evaluable paired biopsies” value with ER pathway signature stood at 67%. For the same molecule, in series [5], the “Exposure of GDC-9545 in combination with palbociclib versus single agent GDC-9545” value is recorded as “generally comparable”.
Turning to `CC(=O)c1c(C)c2cnc(Nc3ccc(N4CCNCC4)cn3)nc2n(C2CCCC2)c1=O` [Palbociclib, 6-acetyl-8-cyclopentyl-5-methyl-2-{[5-(piperazin-1-yl)pyridin-2-yl]amino}pyrido[2,3-d]pyrimidin-7(8H)-one, reference compound], in series [5] (consistent with reported values), the “Palbociclib PK when given with GDC-9545” value was “not altered”.
